The assay concerns Phytophthora sojae. Put plainly: Antioomycete activity against Phytophthora sojae P6497 after 48 to 96 hrs by disc diffusion method. It is filed as functional.

`C[C@@H]1[C@H](O)[C@@H](C)/C=C/C=C/C=C/C=C/C=C/C=C/C=C/[C@H](O[C@@H]2O[C@H](C)[C@@H](O)[C@H](N)[C@@H]2O)C[C@@H]2O[C@](O)(C[C@@H](O)C[C@@H](O)[C@H](O)CC[C@@H](O)C[C@@H](O)CC(=O)O[C@H]1C)C[C@H](O)[C@H]2C(=O)O` [AMPHOTERICIN B] returned an MIC of 10 µg. The same measure for `CC(C)C1=CC(=O)N(CCC(=O)O)C1=O` [FARINOMALEIN]: 5 µg.

(Values after ChEMBL document CHEMBL1154221, “Farinomalein, a maleimide-bearing compound from the entomopathogenic fungus Paecilomyces farinosus” (2009).)
